Reference: patent publication US9156801B2, “2-substituted oleanolic acid derivative, method preparing for same, and application thereof” (HANGZHOU BENSHENG PHARMACEUTICAL CO., LTD., priority 2011, dated 2015)
≈ marks a conversion by molar mass, not a printed value.

Columns and labels:
Hep G2 cell line = test: solid tumor cell growth inhibition, MTT; assay type: cell-based, human; conditions: Homo sapiens; for inhibition at 16 µg/mL: HepG2, 72 h, Hep G2, 16 μg/mL compound, 72 h, read-out: IR (cell proliferation inhibition rate); for IC50: HepG2, Hep G2, 72 h
Method: (§1) Hep-2 (laryngeal carcinoma), A549 (human lung cancer), CaES-17 (esophageal cancer cell), PC-3 (prostate cancer), CNE (nasopharyngeal carcinoma cell), and SK-OV-3 (ovarian cancer cell), all of which are purchased from China Center For Type Culture Collection; RKO (human colon adenocarcinoma cell), MGC 803 (human gastric cancer cell), MG63 (osteosarcoma) and U87 MG (malignant glioma cell), all of which are purchased from Fuxiang Bio-tech Co. Ltd., Shanghai, China; PANC-1 (pancreatic cancer), Hep G2 (human liver cancer cell), Becap37 (human breast cancer cell), and Hela (human cervical cancer cell), all of which are donated by Cancer Research Institute of Zhejiang University, China.
(§2) Obtaining 4000 well-growing human solid tumor cells and inoculating them into wells of a 96-well cell culture plate. The culture medium is DMEM High Glucose cell culture medium containing 10% fetal bovine serum. The plate is placed in a carbon dioxide cell incubator (5% CO2) at 37° C. for 24 hours. After adding the 2-substituted oleanolic acid derivatives of different concentrations and mixing uniformly, the plate is placed in a carbon dioxide cell incubator (5% CO2) at 37° C. and incubated for 72 hours. Then the relative number of the living cells is determined by MTT method. In this experiment, the cell proliferation inhibition rate in control group (not treated with any compound) is set as 0%.

K562/adr cell line = test: leukemia cell growth inhibition, MTT; assay type: cell-based; conditions: Homo sapiens, 72 h; for IC50: K562/Adr; for inhibition at 16 µg/mL: K562/adr, 16 μg/mL compound, read-out: IR (cell proliferation inhibition rate)
Source text: (§3) Leukemia cell lines: leukemia cell lines: K562/adr (drug-resistant, chronic myeloid leukemia, CML), NB4 (acute promyelocytic leukemia, AML), Kasumi-1 (acute myeloid leukemia M2 type, AML-M2), Jurkat (acute lymphoblastic leukemia, ALL), all of which are donated by Cancer Research Institute of Zhejiang University, China; and H9 (acute lymphoblastic leukemia, ALL), which is purchased from China Center for Type Culture Collection (CCTCC).
(§4) Obtaining 6000 well-growing leukemia cells and inoculating them into wells of a 96-well cell culture plate. The culture medium is the 1640 cell culture medium containing 10% fetal bovine serum. After adding the 2-substituted oleanolic acid derivatives of different concentrations and mixing uniformly, placing the plate in a carbon dioxide cell incubator (5% CO2) at 37° C. and incubated for 72 hours. Then the relative number of viable cells is determined by MTT method. In this experiment, cell proliferation inhibition rate in control group (not treated with any compound) is set as 0%.

Jurkat cell line = test: leukemia cell growth inhibition, MTT; assay type: cell-based; conditions: Homo sapiens, 72 h; for inhibition at 16 µg/mL: 16 μg/mL compound, read-out: IR (cell proliferation inhibition rate)
Source text: as §3, §4

Kasumi-1 cell line = test: leukemia cell growth inhibition, MTT; assay type: cell-based; conditions: Homo sapiens; for inhibition at 16 µg/mL: Kasumi-1, 16 μg/mL compound, 72 h, read-out: IR (cell proliferation inhibition rate); for IC50: Kasumi-1, 72 h
Source text: as §3, §4

H9 cell line = test: leukemia cell growth inhibition, MTT; assay type: cell-based; conditions: Homo sapiens; for IC50: H9, 72 h; for inhibition at 16 µg/mL: H9, 16 μg/mL compound, 72 h, read-out: IR (cell proliferation inhibition rate)
Source text: as §3, §4

NB4 cell line = test: leukemia cell growth inhibition, MTT; assay type: cell-based; conditions: Homo sapiens, NB-4; for inhibition at 16 µg/mL: NB4, 16 μg/mL compound, 72 h, read-out: IR (cell proliferation inhibition rate); for IC50: NB4, 72 h
Source text: as §3, §4

A549 cell line = test: solid tumor cell growth inhibition, MTT; assay type: cell-based; conditions: Homo sapiens; for IC50: A549, 72 h; for inhibition at 16 µg/mL: A549, 16 μg/mL compound, 72 h, read-out: IR (cell proliferation inhibition rate)
Method: as §1, §2

MG-63 cell line = test: solid tumor cell growth inhibition, MTT; assay type: cell-based; conditions: Homo sapiens; for IC50: MG-63, 72 h; for inhibition at 16 µg/mL: MG-63, 16 μg/mL compound, 72 h, read-out: IR (cell proliferation inhibition rate)
Method: as §1, §2

Becap37 cell line = test: solid tumor cell growth inhibition, MTT; assay type: cell-based; conditions: Homo sapiens; for inhibition at 16 µg/mL: Becap37, 16 μg/mL compound, 72 h, read-out: IR (cell proliferation inhibition rate); for IC50: Becap37, 72 h
Method: as §1, §2

SK-OV-3 cell line = test: solid tumor cell growth inhibition, MTT; assay type: cell-based; conditions: Homo sapiens; for IC50: SK-OV-3, 72 h; for inhibition at 16 µg/mL: SK-OV-3, 16 μg/mL compound, 72 h, read-out: IR (cell proliferation inhibition rate)
Method: as §1, §2

PC-3 cell line = test: solid tumor cell growth inhibition, MTT; assay type: cell-based; conditions: Homo sapiens; for IC50: PC-3, 72 h; for inhibition at 16 µg/mL: PC-3, 16 μg/mL compound, 72 h, read-out: IR (cell proliferation inhibition rate)
Method: as §1, §2

PANC-1 cell line = test: solid tumor cell growth inhibition, MTT; assay type: cell-based; conditions: Homo sapiens; for IC50: PANC-1, 72 h; for inhibition at 16 µg/mL: PANC-1, 16 μg/mL compound, 72 h, read-out: IR (cell proliferation inhibition rate)
Method: as §1, §2

Hep-2 cell line = test: solid tumor cell growth inhibition, MTT; assay type: cell-based; conditions: Homo sapiens; for IC50: HEp-2, 72 h; for inhibition at 16 µg/mL: Hep-2, 16 μg/mL compound, 72 h, read-out: IR (cell proliferation inhibition rate)
Method: as §1, §2

RKO cell line = test: solid tumor cell growth inhibition, MTT; assay type: cell-based; conditions: Homo sapiens, 72 h; for inhibition at 16 µg/mL: 16 μg/mL compound, read-out: IR (cell proliferation inhibition rate)
Method: as §1, §2

MGC 803 cell line = test: solid tumor cell growth inhibition, MTT; assay type: cell-based; conditions: Homo sapiens; for inhibition at 16 µg/mL: MGC 803, 16 μg/mL compound, 72 h, read-out: IR (cell proliferation inhibition rate); for IC50: MGC 803, 72 h
Method: as §1, §2

CaES-17 cell line = test: solid tumor cell growth inhibition, MTT; assay type: cell-based; conditions: Homo sapiens, CaEs17; for inhibition at 16 µg/mL: CaES-17, 16 μg/mL compound, 72 h, read-out: IR (cell proliferation inhibition rate); for IC50: CaES-17, 72 h
Method: as §1, §2

U87 MG cell line = test: solid tumor cell growth inhibition, MTT; assay type: cell-based; conditions: Homo sapiens, U-87 MG, 72 h; for inhibition at 16 µg/mL: 16 μg/mL compound, read-out: IR (cell proliferation inhibition rate)
Method: as §1, §2

Hela cell line = test: solid tumor cell growth inhibition, MTT; assay type: cell-based; conditions: Homo sapiens, 72 h; for IC50: HeLa; for inhibition at 16 µg/mL: Hela, 16 μg/mL compound, read-out: IR (cell proliferation inhibition rate)
Method: as §1, §2

CNE cell line = test: solid tumor cell growth inhibition, MTT; assay type: cell-based; conditions: Homo sapiens, 72 h; for inhibition at 16 µg/mL: 16 μg/mL compound, read-out: IR (cell proliferation inhibition rate)
Method: as §1, §2

RPMI8226 cell line = test: multiple myeloma cell growth inhibition, MTT; assay type: cell-based; conditions: Homo sapiens, RPMI-8226; for inhibition at 16 µg/mL: RPMI8226, 16 μg/mL compound, 72 h, read-out: IR (cell proliferation inhibition rate); for IC50: RPMI8226, 72 h
Method: Multiple myeloma cell lines: RPMI8226 (multiple myeloma), purchased from Fuxiang Bio-tech Co. Ltd., Shanghai, China.
Obtaining 6000 well-growing cells as above and inoculating them into wells of a 96-well cell culture plate. The culture medium is the 1640 cell culture medium containing 10% fetal bovine serum. After adding the 2-substituted oleanolic acid derivatives of different concentrations and mixing uniformly, placing the plate in a carbon dioxide cell incubator (5% CO2) at 37° C. and incubated for 72 hours. Then the relative number of viable cells is determined by MTT method. In this experiment, cell proliferation inhibition rate in control group (not treated with any compound) is set as 0%.

IC50 (Hep G2 cell line) [µg/mL] | IC50 (K562/adr cell line) [µg/mL] | IC50 (Jurkat cell line) [µg/mL] | IC50 (Kasumi-1 cell line) [µg/mL] | IC50 (H9 cell line) [µg/mL] | IC50 (NB4 cell line) [µg/mL] | IC50 (A549 cell line) [µg/mL] | IC50 (MG-63 cell line) [µg/mL] | IC50 (Becap37 cell line) [µg/mL] | IC50 (SK-OV-3 cell line) [µg/mL] | SMILES | inhibition at 16 µg/mL (Hep G2 cell line) [%] | inhibition at 16 µg/mL (K562/adr cell line) [%] | inhibition at 16 µg/mL (Jurkat cell line) [%] | inhibition at 16 µg/mL (Kasumi-1 cell line) [%] | inhibition at 16 µg/mL (H9 cell line) [%] | inhibition at 16 µg/mL (NB4 cell line) [%] | inhibition at 16 µg/mL (A549 cell line) [%] | inhibition at 16 µg/mL (MG-63 cell line) [%] | inhibition at 16 µg/mL (Becap37 cell line) [%] | inhibition at 16 µg/mL (SK-OV-3 cell line) [%] | other results
8.68 (≈ 13.6 µM) | 1.57 (≈ 2.46 µM) | 11.5 (≈ 17.9 µM) | 13.5 (≈ 21.1 µM) | 8.73 (≈ 13.7 µM) | 4.59 (≈ 7.18 µM) | 10.4 (≈ 16.3 µM) | 12.5 (≈ 19.5 µM) | > 16 | 10.2 (≈ 15.9 µM) | COC(=O)[C@]12CCC(C)(C)CC1C1=CCC3[C@@]4(C)CC(C(=O)NCCCN5CCOCC5)C(=O)C(C)(C)C4CC[C@@]3(C)[C@]1(C)CC2 (some centres unmarked) [BS-OA-037] | 95.7 | 97.6 | 80.4 | 63.7 | 95.8 | 97.6 | 82 | 64.6 | 8.4 | 90.9 | IC50 (PC-3 cell line): 18.7 µg/mL (≈ 29.2 µM); inhibition at 16 µg/mL (PC-3 cell line): 44.2%; IC50 (PANC-1 cell line): > 16 µg/mL; inhibition at 16 µg/mL (PANC-1 cell line): 11.3%; IC50 (Hep-2 cell line): > 16 µg/mL; inhibition at 16 µg/mL (Hep-2 cell line): 25.6%; inhibition at 16 µg/mL (RKO cell line): 62.6%; IC50 (RKO cell line): 14.4 µg/mL (≈ 22.5 µM); inhibition at 16 µg/mL (MGC 803 cell line): 80.5%; IC50 (MGC 803 cell line): 10.8 µg/mL (≈ 16.9 µM); inhibition at 16 µg/mL (CaES-17 cell line): 82.3%; IC50 (CaES-17 cell line): 11.6 µg/mL (≈ 18.1 µM); inhibition at 16 µg/mL (U87 MG cell line): 92.6%; IC50 (U87 MG cell line): 11.1 µg/mL (≈ 17.4 µM); IC50 (Hela cell line): 11 µg/mL (≈ 17.3 µM); inhibition at 16 µg/mL (Hela cell line): 93.6%; inhibition at 16 µg/mL (CNE cell line): 52.6%; IC50 (CNE cell line): 15.5 µg/mL (≈ 24.2 µM); inhibition at 16 µg/mL (RPMI8226 cell line): 99.1%; IC50 (RPMI8226 cell line): 2.43 µg/mL (≈ 3.8 µM)
2.58 (≈ 4.14 µM) | 0.52 (≈ 0.835 µM) | 2.38 (≈ 3.82 µM) | 3.76 (≈ 6.04 µM) | 2.96 (≈ 4.75 µM) | 2.94 (≈ 4.72 µM) | 2.45 (≈ 3.93 µM) | 4.35 (≈ 6.98 µM) | 5.12 (≈ 8.22 µM) | 5.04 (≈ 8.09 µM) | COC(=O)[C@]12CCC(C)(C)CC1C1=CCC3[C@@]4(C)CC(C(=O)NCCCN5CCCC5)C(=O)C(C)(C)C4CC[C@@]3(C)[C@]1(C)CC2 (some centres unmarked) [BS-OA-016] | > 96 | 97.8 | 95.1 | 99.1 | 95.4 | 99.8 | 96.8 | 100 | 99.5 | 99.5 | IC50 (PC-3 cell line): 5.06 µg/mL (≈ 8.12 µM); inhibition at 16 µg/mL (PC-3 cell line): 99.8%; IC50 (PANC-1 cell line): 4.38 µg/mL (≈ 7.03 µM); inhibition at 16 µg/mL (PANC-1 cell line): 98.5%; IC50 (Hep-2 cell line): 5.85 µg/mL (≈ 9.39 µM); inhibition at 16 µg/mL (Hep-2 cell line): 97.2%; inhibition at 16 µg/mL (RKO cell line): 99.4%; IC50 (RKO cell line): 3.33 µg/mL (≈ 5.35 µM); inhibition at 16 µg/mL (MGC 803 cell line): 99.1%; IC50 (MGC 803 cell line): 3 µg/mL (≈ 4.82 µM); inhibition at 16 µg/mL (CaES-17 cell line): 99.4%; IC50 (CaES-17 cell line): 3.93 µg/mL (≈ 6.31 µM); inhibition at 16 µg/mL (U87 MG cell line): 100%; IC50 (U87 MG cell line): 2.45 µg/mL (≈ 3.93 µM); IC50 (Hela cell line): 3.78 µg/mL (≈ 6.07 µM); inhibition at 16 µg/mL (Hela cell line): 98%; inhibition at 16 µg/mL (CNE cell line): 99.4%; IC50 (CNE cell line): 4.07 µg/mL (≈ 6.53 µM); inhibition at 16 µg/mL (RPMI8226 cell line): 99%; IC50 (RPMI8226 cell line): 1.15 µg/mL (≈ 1.85 µM)
